Experimental data: publication PMC3760004 (Cancer research, 2013)
“Also recorded” adds a separate entry of the source.

Legend:
KRAS-driven lung tumors = assay: Tumor volume by MRI in KRAS G12D driven lung cancer model; format: in vivo; conditions: KRAS G12D mice, 4 weeks, Torin2 40 mg/kg q.d., AZD6244 25 mg/kg q.d.
pERK = assay: Pharmacodynamics by immunohistochemistry in KRAS G12D lung tumors; format: in vivo, Mice; conditions: for pERK1/2 levels: after 4-week treatment
Calu1 = assay: 72-hour proliferation assay; format: cell-based, human
mTORC1 [1] = target: T1, mTORC1 (Homo sapiens, UniProt P42345); assay: Cellular wash-out assay, S6KT389 phosphorylation, HCT116 cells; format: cell-based; conditions: 100 nM for 1 hour, then wash-out
mTORC2 [2] = target: T2, mTORC2 (Homo sapiens, UniProt P42345); assay: Cellular wash-out assay, AktS473 phosphorylation, HCT116 cells; format: cell-based; conditions: 100 nM for 1 hour, then wash-out
ATM [3] = target: T3, ATM (Homo sapiens, UniProt Q13315); assay: Kinativ chemical proteomics profiling in cellular lysates; format: binding
T3 sequence (Q13315 whole entry, species assumed): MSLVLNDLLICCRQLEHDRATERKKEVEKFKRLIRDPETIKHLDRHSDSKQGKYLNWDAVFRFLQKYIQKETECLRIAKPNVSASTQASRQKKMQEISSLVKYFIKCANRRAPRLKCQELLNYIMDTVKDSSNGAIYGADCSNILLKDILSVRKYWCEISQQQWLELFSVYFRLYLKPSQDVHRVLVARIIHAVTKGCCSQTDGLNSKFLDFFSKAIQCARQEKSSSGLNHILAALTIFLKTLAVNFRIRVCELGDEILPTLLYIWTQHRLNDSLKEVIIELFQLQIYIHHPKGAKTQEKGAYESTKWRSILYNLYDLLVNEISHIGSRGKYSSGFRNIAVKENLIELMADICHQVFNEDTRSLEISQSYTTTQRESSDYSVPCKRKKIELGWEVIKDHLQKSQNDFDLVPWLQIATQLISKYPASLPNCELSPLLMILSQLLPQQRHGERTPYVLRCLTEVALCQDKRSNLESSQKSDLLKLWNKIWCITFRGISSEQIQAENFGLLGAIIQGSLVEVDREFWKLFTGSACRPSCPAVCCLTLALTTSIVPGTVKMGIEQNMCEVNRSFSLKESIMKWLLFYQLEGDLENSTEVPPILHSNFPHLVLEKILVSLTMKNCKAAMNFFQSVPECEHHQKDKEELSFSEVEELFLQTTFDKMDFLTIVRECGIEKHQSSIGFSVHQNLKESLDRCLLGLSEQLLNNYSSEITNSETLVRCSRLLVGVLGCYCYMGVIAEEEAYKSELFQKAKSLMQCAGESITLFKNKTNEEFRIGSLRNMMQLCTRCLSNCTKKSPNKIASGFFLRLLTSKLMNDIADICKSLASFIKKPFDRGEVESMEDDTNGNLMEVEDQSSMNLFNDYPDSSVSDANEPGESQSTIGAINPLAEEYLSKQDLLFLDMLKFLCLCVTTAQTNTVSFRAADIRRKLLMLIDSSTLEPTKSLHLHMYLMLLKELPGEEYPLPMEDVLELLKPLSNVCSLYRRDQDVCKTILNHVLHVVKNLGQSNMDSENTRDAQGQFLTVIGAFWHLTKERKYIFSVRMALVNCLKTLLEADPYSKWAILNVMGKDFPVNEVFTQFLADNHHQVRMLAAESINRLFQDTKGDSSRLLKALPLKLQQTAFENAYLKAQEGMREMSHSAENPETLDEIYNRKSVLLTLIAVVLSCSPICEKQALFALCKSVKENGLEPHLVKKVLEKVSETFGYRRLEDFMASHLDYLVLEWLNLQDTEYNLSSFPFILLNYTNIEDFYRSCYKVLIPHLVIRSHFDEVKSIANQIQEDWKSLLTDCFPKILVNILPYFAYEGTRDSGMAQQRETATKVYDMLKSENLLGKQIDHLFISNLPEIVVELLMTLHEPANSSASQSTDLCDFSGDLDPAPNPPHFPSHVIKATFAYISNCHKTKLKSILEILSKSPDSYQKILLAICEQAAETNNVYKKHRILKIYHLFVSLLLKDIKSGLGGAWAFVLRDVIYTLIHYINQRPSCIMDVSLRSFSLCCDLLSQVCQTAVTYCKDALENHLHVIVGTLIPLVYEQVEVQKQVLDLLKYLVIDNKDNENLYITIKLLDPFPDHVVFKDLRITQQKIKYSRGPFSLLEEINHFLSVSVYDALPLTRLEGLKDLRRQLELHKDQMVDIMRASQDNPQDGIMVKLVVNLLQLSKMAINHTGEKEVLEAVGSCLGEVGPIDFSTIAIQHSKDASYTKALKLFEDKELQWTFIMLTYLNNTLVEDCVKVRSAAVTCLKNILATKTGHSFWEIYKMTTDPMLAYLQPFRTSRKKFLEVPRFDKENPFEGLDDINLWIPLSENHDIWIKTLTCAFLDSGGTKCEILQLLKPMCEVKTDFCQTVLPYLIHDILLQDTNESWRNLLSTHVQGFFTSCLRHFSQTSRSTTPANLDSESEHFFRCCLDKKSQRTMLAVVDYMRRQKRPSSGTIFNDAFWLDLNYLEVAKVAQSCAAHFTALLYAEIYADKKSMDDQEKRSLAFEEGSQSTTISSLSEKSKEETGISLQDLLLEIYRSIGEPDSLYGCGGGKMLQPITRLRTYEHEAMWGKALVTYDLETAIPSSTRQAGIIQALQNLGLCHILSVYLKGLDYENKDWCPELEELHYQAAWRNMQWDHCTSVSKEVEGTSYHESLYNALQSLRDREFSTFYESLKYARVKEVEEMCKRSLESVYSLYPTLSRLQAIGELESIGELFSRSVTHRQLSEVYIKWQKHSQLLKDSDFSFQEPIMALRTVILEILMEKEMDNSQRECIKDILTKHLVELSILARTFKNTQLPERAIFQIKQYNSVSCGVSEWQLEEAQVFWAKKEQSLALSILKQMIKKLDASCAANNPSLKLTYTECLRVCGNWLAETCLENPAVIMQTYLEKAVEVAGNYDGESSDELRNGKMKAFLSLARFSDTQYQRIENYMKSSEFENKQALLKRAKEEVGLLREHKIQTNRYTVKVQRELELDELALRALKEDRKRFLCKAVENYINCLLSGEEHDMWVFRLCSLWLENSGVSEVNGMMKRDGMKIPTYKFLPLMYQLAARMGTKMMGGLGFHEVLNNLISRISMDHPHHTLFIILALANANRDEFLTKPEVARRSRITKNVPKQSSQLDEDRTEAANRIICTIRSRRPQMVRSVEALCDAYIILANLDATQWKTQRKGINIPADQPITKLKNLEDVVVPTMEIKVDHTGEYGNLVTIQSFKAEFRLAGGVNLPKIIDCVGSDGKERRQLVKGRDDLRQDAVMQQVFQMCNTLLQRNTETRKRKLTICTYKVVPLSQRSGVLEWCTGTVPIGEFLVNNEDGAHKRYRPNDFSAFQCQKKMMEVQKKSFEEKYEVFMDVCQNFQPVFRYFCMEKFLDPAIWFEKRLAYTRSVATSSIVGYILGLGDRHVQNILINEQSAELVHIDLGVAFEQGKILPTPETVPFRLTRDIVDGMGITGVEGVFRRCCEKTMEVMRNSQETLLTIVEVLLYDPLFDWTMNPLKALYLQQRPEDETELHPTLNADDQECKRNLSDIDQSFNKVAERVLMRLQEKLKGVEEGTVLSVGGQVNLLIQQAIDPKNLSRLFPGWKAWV

ATR [4] = target: T4, ATR (Homo sapiens, UniProt Q13535); assay: as above; format: binding
PIP4K2C = PIP4K2C (Homo sapiens, UniProt Q8TBX8); assay: as above; format: binding
PIP5K3 = PIP5K3 (Homo sapiens, UniProt Q9Y2I7); assay: as above; format: binding
Chain of PIP5K3 (Q9Y2I7 whole entry, species assumed): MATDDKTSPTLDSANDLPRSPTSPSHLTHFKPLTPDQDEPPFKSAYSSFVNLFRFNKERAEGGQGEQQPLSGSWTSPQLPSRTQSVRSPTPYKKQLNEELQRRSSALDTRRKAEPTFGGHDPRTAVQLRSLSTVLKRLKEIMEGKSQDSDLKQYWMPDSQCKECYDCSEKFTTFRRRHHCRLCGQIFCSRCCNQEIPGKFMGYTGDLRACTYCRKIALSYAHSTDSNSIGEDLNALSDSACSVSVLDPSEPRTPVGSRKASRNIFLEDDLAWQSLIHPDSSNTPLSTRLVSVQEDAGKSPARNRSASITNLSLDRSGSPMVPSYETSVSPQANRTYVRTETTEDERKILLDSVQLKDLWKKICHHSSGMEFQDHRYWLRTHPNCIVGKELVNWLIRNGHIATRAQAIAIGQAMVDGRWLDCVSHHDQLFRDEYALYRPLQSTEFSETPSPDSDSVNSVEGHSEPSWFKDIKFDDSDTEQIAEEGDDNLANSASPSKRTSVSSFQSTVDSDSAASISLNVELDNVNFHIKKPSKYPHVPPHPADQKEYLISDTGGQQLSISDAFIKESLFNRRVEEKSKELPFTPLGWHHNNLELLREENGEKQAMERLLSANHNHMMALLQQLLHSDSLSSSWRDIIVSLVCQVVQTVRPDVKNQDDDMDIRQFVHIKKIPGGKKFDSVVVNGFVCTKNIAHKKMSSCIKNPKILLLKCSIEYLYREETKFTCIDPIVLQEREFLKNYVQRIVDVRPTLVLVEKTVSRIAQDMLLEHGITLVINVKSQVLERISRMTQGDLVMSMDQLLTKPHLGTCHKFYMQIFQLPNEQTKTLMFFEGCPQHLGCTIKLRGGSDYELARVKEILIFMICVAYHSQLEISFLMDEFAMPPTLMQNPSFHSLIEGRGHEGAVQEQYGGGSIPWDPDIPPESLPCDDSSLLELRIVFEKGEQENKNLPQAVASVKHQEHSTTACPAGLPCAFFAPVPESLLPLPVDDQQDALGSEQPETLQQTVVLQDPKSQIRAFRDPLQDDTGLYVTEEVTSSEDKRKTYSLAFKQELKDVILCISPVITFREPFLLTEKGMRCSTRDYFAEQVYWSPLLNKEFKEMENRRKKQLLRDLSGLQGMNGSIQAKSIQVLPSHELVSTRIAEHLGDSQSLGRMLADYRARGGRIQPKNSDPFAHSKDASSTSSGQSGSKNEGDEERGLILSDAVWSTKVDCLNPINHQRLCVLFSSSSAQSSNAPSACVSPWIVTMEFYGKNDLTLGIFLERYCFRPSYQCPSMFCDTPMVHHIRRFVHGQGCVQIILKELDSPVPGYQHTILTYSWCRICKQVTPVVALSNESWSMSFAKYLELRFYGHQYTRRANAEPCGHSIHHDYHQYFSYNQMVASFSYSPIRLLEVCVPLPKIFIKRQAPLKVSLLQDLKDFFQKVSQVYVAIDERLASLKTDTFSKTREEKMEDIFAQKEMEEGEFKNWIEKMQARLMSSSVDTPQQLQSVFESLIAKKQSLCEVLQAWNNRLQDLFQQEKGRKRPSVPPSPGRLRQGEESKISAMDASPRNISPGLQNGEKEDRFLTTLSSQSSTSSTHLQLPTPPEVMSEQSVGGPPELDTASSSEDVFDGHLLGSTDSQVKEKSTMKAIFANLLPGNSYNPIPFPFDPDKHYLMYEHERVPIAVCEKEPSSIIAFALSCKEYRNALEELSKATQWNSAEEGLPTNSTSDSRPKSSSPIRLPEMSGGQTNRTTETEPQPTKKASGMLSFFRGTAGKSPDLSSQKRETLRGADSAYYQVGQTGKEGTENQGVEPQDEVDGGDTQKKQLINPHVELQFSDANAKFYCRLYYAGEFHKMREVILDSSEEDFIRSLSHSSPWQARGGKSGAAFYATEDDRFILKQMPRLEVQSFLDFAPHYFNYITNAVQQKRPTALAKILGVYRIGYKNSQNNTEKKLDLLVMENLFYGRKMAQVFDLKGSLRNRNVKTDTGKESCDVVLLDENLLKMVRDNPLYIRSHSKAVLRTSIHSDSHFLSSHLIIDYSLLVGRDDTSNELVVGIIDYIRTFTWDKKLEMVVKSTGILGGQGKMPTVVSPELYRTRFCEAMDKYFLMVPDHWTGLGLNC

SMG1 = SMG1 (Homo sapiens, UniProt Q96Q15); assay: as above; format: binding
ATR [5] = target: T4, ATR; assay: ATR cellular activity, S317 of Chk1 after UV radiation, HCT-116 cells; format: cell-based
ATM [6] = target: T3, ATM; format: cell-based
mTORC1 [7] = target: T1, mTORC1; conditions: 0.5 µM inhibitor 1 hour, then 500 µM ATP
mTORC1 [8] = target: T1, mTORC1; conditions: cited from earlier work
T308 of Akt = assay: Western blot of T308 of Akt in HCT-116 cells; format: cell-based; conditions: Homo sapiens, HCT-116, read-out: EC50, T308 of Akt
H2122 = assay: Tumor cell growth assay; format: cell-based; conditions: Homo sapiens, NCI-H2122, 72 h
H358 = assay: Tumor cell growth assay; format: cell-based; conditions: Homo sapiens, NCI-H358, 72 h
H1792 = assay: Tumor cell growth assay; format: cell-based; conditions: Homo sapiens, NCI-H1792, 72 h
A549 = assay: Tumor cell growth assay; format: cell-based; conditions: Homo sapiens, A549, 72 h
H441 = assay: Tumor cell growth assay; format: cell-based; conditions: Homo sapiens, NCI-H441, 72 h
H1355 = assay: Tumor cell growth assay; format: cell-based; conditions: Homo sapiens, NCI-H1355, 72 h
H460 = assay: Tumor cell growth assay; format: cell-based; conditions: Homo sapiens, NCI-H460, 72 h
HCT-116 = assay: Tumor cell growth assay; format: cell-based; conditions: Homo sapiens, HCT-116, 72 h
H1299 = assay: Tumor cell growth assay; format: cell-based; conditions: Homo sapiens, NCI-H1299, 72 h
H292 = assay: Tumor cell growth assay; format: cell-based; conditions: Homo sapiens, NCI-H292, 72 h
BT-20 = assay: Tumor cell growth assay; format: cell-based; conditions: Homo sapiens, BT-20, 72 h
HS578T = assay: Tumor cell growth assay; format: cell-based; conditions: Homo sapiens, Hs-578T, 72 h
MCF10A = assay: Tumor cell growth assay; format: cell-based; conditions: Homo sapiens, MCF-10A, 72 h
MCF7 = assay: Tumor cell growth assay; format: cell-based; conditions: Homo sapiens, MCF7, 72 h
MDAMB231 = assay: Tumor cell growth assay; format: cell-based; conditions: Homo sapiens, MDA-MB-231, 72 h
SKBR3 = assay: Tumor cell growth assay; format: cell-based; conditions: Homo sapiens, SK-BR-3, 72 h
Hela = assay: Tumor cell growth assay; format: cell-based; conditions: Homo sapiens, 72 h
Human mTORC1 complex = Human mTORC1 complex (Homo sapiens, UniProt P42345); assay: ATP competition assay; conditions: biochemical kinase assays with increasing ATP concentrations
[9] = test system: human fibroblast AG01522 cell line; assay: Ionizing irradiation assay, clonogenic cell survival; format: cell-based; conditions: AG01522, added 30min before irradiation
[10] = test system: HCT116 cells, AktT308 phosphorylation; assay: Longer-term cellular signaling analysis; format: cell-based; conditions: 100 nM
[11] = test system: HeLa cells, AktT308 phosphorylation; assay: Longer-term cellular signaling analysis; format: cell-based; conditions: 100 nM
[12] = test system: cancer cell lines (HCT116, Hela, Calu 1, H226, H358); assay: Apoptosis assay, PARP cleavage by western blot; format: cell-based; conditions: 16 hours
Hela cells = assay: Autophagy assay, acridine orange staining; format: cell-based; conditions: 72 h
[13] = test system: HCT-116, Hela, Calu-1, H358 and H226; assay: Autophagy assay, LC3B staining and western blot; format: cell-based; conditions: 5 cell lines, 3 days
Hela S3 cells = assay: Cell cycle analysis by FACS; format: cell-based; conditions: Hela S3, 48 hrs
mTOR = assay: Pharmacodynamics by immunohistochemistry in KRAS G12D lung tumors; format: in vivo, Mice
ATR kinase = assay: as above; format: in vivo, Mice; conditions: after 4-week treatment
mTORC1 [14] = target: T1, mTORC1; conditions: combined biochemical and cellular profiling summary
mTORC2 [15] = target: T2, mTORC2; conditions: combined biochemical and cellular profiling summary
DNA-PK = DNA-PK (Homo sapiens, UniProt P78527); conditions: combined biochemical and cellular profiling summary
[16] = combined biochemical and cellular profiling summary
[17] = 2-day, 40 mg/kg single daily dosing

**Q.** With `Cn1cnc2c(F)c(Nc3ccc(Br)cc3Cl)c(C(=O)NOCCO)cc21` [AZD6244] as the compound, how does the “tumor volume / tumor growth by MRI” value (KRAS-driven lung tumors) read?
**A.** neither Torin2 (40 mg/kg, q.d.) nor AZD6244 (25 mg/kg, q.d.) alone resulted in a significant inhibition of tumor volume

**Q.** And the pERK by immunohistochemistry (pERK; 2-day, AZD6244 25 mg/kg)?
**A.** profound inhibition

**Q.** What about the pERK1/2 levels (pERK) of the same compound?
**A.** slightly recovered

**Q.** With `COc1ccc(-c2ccc3c(N4CCOC[C@@H]4C)nc(N4CCOC[C@@H]4C)nc3n2)cc1CO` [AZD8055, reference compound] as the compound, how does the “sensitivity of proliferation, Calu1” value (Calu1) read?
**A.** relatively more resistant

**Q.** What about the “time for S6KT389 phosphorylation (mTORC1 function) to recover after wash-out” value (mTORC1 [1]) of the same compound?
**A.** ≤ 1 h

**Q.** And the “time for AktS473 phosphorylation (mTORC2 function) to recover after wash-out” value (mTORC2 [2])?
**A.** ≤ 1 h

**Q.** Which results are given for `CCC(=O)N1CCN(c2ccc(-n3c(=O)ccc4cnc5ccc(-c6cnc7ccccc7c6)cc5c43)cc2C(F)(F)F)CC1` [Torin1, 1-(4-(4-propionylpiperazin-1-yl)-3-(trifluoromethyl)phenyl)-9-(quinolin-3-yl)benz o[h][1,6]naphthyridin-2(1H)-one]?
**A.** IC50 (ATM [3]): 0.64 µM; IC50 (ATR [4]): < 0.01 µM; IC50 (PIP4K2C): > 10 µM; IC50 (PIP5K3): > 10 µM; IC50 (SMG1): 4.4 µM; EC50 (ATR [5]): > 1 µM; EC50 (ATM [6]): > 1 µM; duration of sustained inhibition of mTORC1 kinase activity after removal of drug (mTORC1 [7]; 4EBP1 phosphorylation): approximately 75 minutes; duration of suppression of S6K T389 phosphorylation after removal of the drug (mTORC1 [8]): up to 16 h

**Q.** For `Nc1ccc(-c2ccc3ncc4ccc(=O)n(-c5cccc(C(F)(F)F)c5)c4c3c2)cn1` [Torin2, 9-(6-aminopyridin-3-yl)-1-(3-(trifluoromethyl)phenyl)benzo[h][1,6]naphthyridin-2(1H)-one], which EC50 (T308 of Akt) is on record?
**A.** < 0.01 µM

**Q.** What about the “concentration at which ATR is inhibited” value (ATR [5]; [16]) of the same compound?
**A.** 20 to 100 nM

**Q.** What about the “concentration at which ATM is inhibited” value (ATM [6]; [16]) of the same compound?
**A.** 20 to 100 nM

**Q.** What about the GI50 (H2122) of the same compound?
**A.** 0.0132 µM

**Q.** And the GI50 (H358)?
**A.** 0.105 µM

**Q.** What about the GI50 (H1792) of the same compound?
**A.** 0.0198 µM

**Q.** And the GI50 (A549)?
**A.** 0.0311 µM

**Q.** What about the GI50 (H441) of the same compound?
**A.** 0.0205 µM

**Q.** And the GI50 (H1355)?
**A.** 0.0258 µM

**Q.** And the GI50 (H460)?
**A.** 0.0457 µM

**Q.** What about the GI50 (HCT-116) of the same compound?
**A.** 0.0607 µM

**Q.** And the GI50 (H1299)?
**A.** 0.0236 µM

**Q.** And the GI50 (H292)?
**A.** 0.0101 µM

**Q.** What about the GI50 (BT-20) of the same compound?
**A.** 0.219 µM

**Q.** And the GI50 (HS578T)?
**A.** 0.0624 µM

**Q.** What about the GI50 (MCF10A) of the same compound?
**A.** 0.0321 µM

**Q.** What about the GI50 (MCF7) of the same compound?
**A.** 0.0411 µM

**Q.** What about the GI50 (MDAMB231) of the same compound?
**A.** 0.108 µM

**Q.** What about the GI50 (SKBR3) of the same compound?
**A.** 0.123 µM

**Q.** And the GI50 (Hela)?
**A.** 0.0293 µM

**Q.** What about the “sensitivity of proliferation, Calu1” value (Calu1) of the same compound?
**A.** relatively more resistant

**Q.** And the “mode of mTOR inhibition” value (Human mTORC1 complex)?
**A.** ATP-competitive fashion

**Q.** What about the “time for AktS473 phosphorylation (mTORC2 function) to recover after wash-out” value (mTORC2 [2]) of the same compound?
**A.** approximately 4 hours

**Q.** What about the “sensitization of IR treatment, clonogenic survival” value [9] of the same compound?
**A.** dose dependent sensitization of the IR treatment

**Q.** What about the “recovery of AktT308 phosphorylation by 72 hours” value [10] of the same compound?
**A.** partially

**Q.** And the “recovery of AktT308 phosphorylation by 72 hours” value [11]?
**A.** completely recovered

**Q.** And the “apoptosis (PARP cleavage) in H358” value [12]?
**A.** induced strong apoptosis

**Q.** And the “punctate acridine orange staining (autophagy)” value (Hela cells)?
**A.** dose dependent increase in punctate acridine staining

**Q.** And the LC3-1/II autophagosome markers [13]?
**A.** dose dependent increase of LC3-1/II autophagosome markers

**Q.** And the “cell cycle distribution by flow cytometry” value (Hela S3 cells)?
**A.** dose-dependent decrease in G1 cells and an increase in S-phase, sub-G1 phase cells and cell death

**Q.** And the “tumor volume / tumor growth by MRI” value (KRAS-driven lung tumors)?
**A.** did not yield significant efficacy; also recorded: neither Torin2 (40 mg/kg, q.d.) nor AZD6244 (25 mg/kg, q.d.) alone resulted in a significant inhibition of tumor volume

**Q.** And the “pAkt(T308) by immunohistochemistry” value (mTOR; [17])?
**A.** partly suppressed

**Q.** What about the “pS6K(T389) and p4EBP1(T37/46) by immunohistochemistry” value (mTOR; [17]) of the same compound?
**A.** strongly suppressed

**Q.** What about the “pS6K(T389) and p4EBP1(T37/46) levels” value (mTOR; after 4-week treatment) of the same compound?
**A.** showed some recovery

**Q.** What about the pERK1/2 levels (pERK) of the same compound?
**A.** significantly increased

**Q.** And the “pCHK1(S345)” value (ATR kinase)?
**A.** slightly decreased

**Q.** What about the “concentration at which mTORC1 is inhibited” value (mTORC1 [14]) of the same compound?
**A.** less than 10 nM

**Q.** And the “concentration at which mTORC2 is inhibited” value (mTORC2 [15])?
**A.** less than 10 nM

**Q.** And the “concentration at which PI3K is inhibited” value (PI3K; [16])?
**A.** above 200 nM

**Q.** And the EC50 (PI3K; read-out: apparent EC50 against T308 with S473D mutant of Akt, PC3 AktS473D cell line)?
**A.** 0.2 µM

**Q.** What about the “concentration at which DNA-PK is inhibited” value (DNA-PK) of the same compound?
**A.** 20 to 100 nM

**Q.** What about the “recovery of mTORC1 kinase activity after removal of drug” value (mTORC1 [7]; about 75 minutes window) of the same compound?
**A.** sustained inhibition of mTORC1
